Laboratory results from patent US12565504B2, “Spirocyclic O-glycoprotein-2-acetamido-2-deoxy-3-d-glucopyranosidase inhibitors” (BIOGEN MA INC., priority 2019, dated 2026).
Where two headings read alike, the source gives them in different places.

What was measured:
[1] = target: Recombinant full length human OGA enzyme (Homo sapiens (Human), UniProt O60502); test: OGA Enzyme Inhibition Biochemical Assay; details: 1 nM OGA, 100 μM 4-MUGlcNAc, 90 minutes, pH 6.4
In short: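 Full-length recombinant human OGA with fluorogenic 4-MUGlcNAc in McIlvaine buffer pH 6.4, 0.01% BSA; 90 min at room temperature, glycine pH 10 quench, fluorescence Ex 355/Em 460 nm. 10-point, 4-fold dilution from 20 μM; 4-parameter variable-slope fit.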

[2] = rat, microsomes, 1 μM, pH 7.4
Protocol: (§1) Aliquots (40 uL) at 0, 5, 10, 15, 25 and 40 minutes post NADPH addition (or compound addition for reactions in absence of NADPH) were transferred into individual 96-well plate wells containing 40 ng/ml of 8-cyclopently-1,3-dipropylxanthine (CPDPX, internal standard) in 160 uL acetonitrile:methanol (1:1 v/v).
(§2) The LC/MS/MS system consisted of an ultra high throughput RapidFire® 300 system (Agilent Technologies, Santa Clara, CA) coupled to a Triple Quad 5500 mass spectrometer (ABSciex, Foster City, CA). Sample load and wash were performed on a RapidFire® C4 cartridge using 0.1% formic acid in water as mobile phase A and sample elution using 0.1% formic acid in acetonitrile:methanol (1:1 v/v) as mobile phase B.
(§3) CLint, app (apparent intrinsic clearance) was calculated using the following equation for microsome stability.
(§4) [formula] • where “a” represents 45 grams of liver/kg of body weight for rat. • CLint,app (apparent intrinsic clearance) was calculated using the following equation for hepatocyte stability: • CLhep (hepatic clearance) was calculated using the following equation for microsomes
(§5) [formula] • using 55 mL/minute/kg as Qh (hepatic blood flow) for rat.

OGA (S400 O-GLCNAC) = OGA (S400 O-GLCNAC) (Homo sapiens (Human), UniProt O60502); test: Cellular OGA-Tau MSD Assay; type: cell-based; details: HEK-293T cells transfected with OGT and Tau-V5; Tau-S400-GlcNAc MSD readout
Chain of OGA (S400 O-GLCNAC) (O60502 whole entry): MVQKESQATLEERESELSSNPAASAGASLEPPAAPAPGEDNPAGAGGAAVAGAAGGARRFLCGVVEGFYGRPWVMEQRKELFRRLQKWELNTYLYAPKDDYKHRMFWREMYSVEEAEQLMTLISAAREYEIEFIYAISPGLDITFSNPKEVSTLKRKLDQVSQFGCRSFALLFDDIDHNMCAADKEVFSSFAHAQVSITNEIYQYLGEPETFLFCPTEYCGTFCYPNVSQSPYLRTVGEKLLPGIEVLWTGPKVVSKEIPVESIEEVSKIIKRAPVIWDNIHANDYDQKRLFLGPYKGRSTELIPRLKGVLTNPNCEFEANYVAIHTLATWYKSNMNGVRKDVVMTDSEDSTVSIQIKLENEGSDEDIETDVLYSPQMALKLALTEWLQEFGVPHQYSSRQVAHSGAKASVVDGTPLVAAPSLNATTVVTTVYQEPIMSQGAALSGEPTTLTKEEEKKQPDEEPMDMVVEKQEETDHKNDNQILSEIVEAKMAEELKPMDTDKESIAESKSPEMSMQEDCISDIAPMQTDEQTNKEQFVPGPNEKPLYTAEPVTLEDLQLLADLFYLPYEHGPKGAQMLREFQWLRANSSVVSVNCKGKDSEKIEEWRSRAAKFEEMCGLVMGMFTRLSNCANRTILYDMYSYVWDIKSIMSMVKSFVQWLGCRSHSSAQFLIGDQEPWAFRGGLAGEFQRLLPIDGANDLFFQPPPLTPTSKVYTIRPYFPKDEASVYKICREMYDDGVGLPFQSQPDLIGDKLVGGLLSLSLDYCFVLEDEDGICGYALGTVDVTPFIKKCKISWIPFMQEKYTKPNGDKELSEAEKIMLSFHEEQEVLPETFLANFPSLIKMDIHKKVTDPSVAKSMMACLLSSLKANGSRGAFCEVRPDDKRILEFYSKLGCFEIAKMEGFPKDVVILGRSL
In short: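 HEK-293T cells transiently co-expressing OGT and Tau-V5 were treated overnight at 37° C with compounds (top 1 uM, 3-fold, 10 points). Lysate Tau was captured on V5 antibody, and S400-GlcNAc was detected by MSD electrochemiluminescence. IC50 was derived from a 4-parameter fit of normalized % activity.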

P-gp (MDR1) = test: MDR1-MDCK Efflux Ratio Assay; type: in vitro ADME; details: dog, MDR1-MDCK cells, pH 7.4, read-out: MDR1-MDCK Efflux Ratio (B-A/A-B)
Protocol: MDR1-MDCK cell monolayers were grown to confluence on microporous polyester membranes in 96-well Corning insert plates. The permeability assay buffer was Hanks' Balanced Salt Solution containing 10 mM HEPES at pH of 7.4. Loperamide (1 μM) was used as a positive control P-gp substrate. Propranolol and Bestatin (1 μM) were used as high and low permeability comparators, respectively.
Test compounds or positive control P-gp substrate/permeability comprators were added to respective apical and basolateral chambers for bidirectional assessment of permeability. Receiver buffer (transport buffer supplemented with 1% bovine serum albumin) was added to respective receiver chambers. MDR1-MDCK cells were incubated with test compounds at 37° C. with 5% CO2 for 2 hr. Samples were collected from the donor chamber at both 0 and 120 minutes, and from the receiver chamber at 120 minutes. Test and control compound concentrations were determined using LC-MS/MS analysis. Each determination was performed in triplicate.

[3] = Rat Liver Microsome Stability Assay; details: rat liver microsomes 0.5 mg/mL, compound 1 μM; Qh 55 mL/minute/kg
Protocol: as §1, §2, §3, §4, §5

Chain of Recombinant full length human OGA enzyme (O60502 whole entry): as above

Compound | IC50 [1] [nM] | RLM % Qh (%) [2] [%] | IC50 (OGA (S400 O-GLCNAC)) [nM] | efflux ratio at 2 hr (P-gp (MDR1)) | RLM % Qh (%) [3] [%]
CC(=O)Nc1nc(F)c(CN2CCC3(Cc4ncccc4O3)C2)s1 (centres unmarked) [Example 91, N-(5-((3H-spiro[furo[3,2-b]pyridine-2,3′-pyrrolidin]-1′-yl)methyl)-4-fluorothiazol-2-yl)acetamide] | 70 | 45 | – | – | –
CC(=O)Nc1ncc(CN2C[C@@]3(Cc4cc(N5C[C@H](C)O[C@@H](C)C5)ncc4O3)C[C@@H]2C)s1 [Example 42, N-(5-(((2R,5′S)-5-((2S,6S)-2,6-Dimethylmorpholino)-5′-methyl-3H-spiro[furo[2,3-c]pyridine-2,3′-pyrrolidin]-1′-yl)methyl)thiazol-2-yl)acetamide] | 1.9 | – | 14 | 25 | 66
COCCN(C)c1cc2c(cn1)O[C@]1(C2)C[C@H](C)N(Cc2sc(NC(C)=O)nc2F)C1 [Example 33, N-(4-Fluoro-5-(((2R,5′S)-5-((2-methoxyethyl)(methyl)amino)-5′-methyl-3H-spiro[furo[2,3-c]pyridine-2,3′-pyrrolidin]-1′-yl)methyl)thiazol-2-yl)acetamide] | < 1 | – | 2 | 22 | 82
CC(=O)Nc1ncc(CN2C[C@@]3(Cc4cc(Cl)ncc4O3)C[C@@H]2C)s1 [Example 11, N-(5-(((2R,5′S)-5-Chloro-5′-methyl-3H-spiro[furo[2,3-c]pyridine-2,3′-pyrrolidin]-1′-yl)methyl)thiazol-2-yl)acetamide] | 6 | – | 9 | 8.4 | 70
CC(=O)Nc1nc(F)c(CN2C[C@@]3(Cc4cc(N5C[C@H](C)O[C@@H](C)C5)ncc4O3)C[C@@H]2C)s1 [Example 43, N-(5-(((2R,5′S)-5-((2S,6S)-2,6-Dimethylmorpholino)-5′-methyl-3H-spiro[furo[2,3-c]pyridine-2,3′-pyrrolidin]-1′-yl)methyl)-4-fluorothiazol-2-yl)acetamide] | < 1 | – | 8 | 17.5 | 75
CC(=O)Nc1ncc(CN2CCC3(C2)OCc2ccccc23)s1 (centres unmarked) [Example 57, N-(5-((3H-Spiro[isobenzofuran-1,3′-pyrrolidin]-1′-yl)methyl)thiazol-2-yl)acetamide] | 170 | – | 818 | 2.4 | 88
COc1nccc2c1COC21C[C@H](C)N(Cc2cnc(NC(C)=O)s2)C1 (stereo partly drawn) [Example 78, N-(5-(((5′S)-4-Methoxy-5′-methyl-3H-spiro[furo[3,4-c]pyridine-1,3′-pyrrolidin]-1′-yl)methyl)thiazol-2-yl)acetamide] | 65 | – | 9 | 7.9 | 93
